{"source": "paper PMC7270110", "about": "“Labeled oxytocin administered via the intranasal route reaches the brain in rhesus macaques” (Nature Communications, 2020)", "key": {"[1]": {"details": "nonhuman primate, cited from earlier work", "method": "[…] For IV administration, 1 ml was administered via a peripheral IV catheter. For IN administration, an IN Mucosal Atomization Device [MAD, Teleflex Medical, Research Triangle Park, NC] was used. This same device was used in our previous nonhuman primate study. […] Of not ..."}, "[2]": {"details": "humans; 24 IU OT (not labelled) intranasally; 75 minutes post-administration; radioimmunoassay; ref Striepens et al., Sci Rep 2013; cited from earlier work", "method": "page 8: 4. It is surprising that no CSF d5 OT was detected at 60 or 120 minutes in CSF after IN administration. […] In our previous study (Lee et al., Mol Psychiatry 2018), after IN administration, CSF d5OT concentration at 60 minutes was quantified in 4 monkeys as follows: 11.28, 15.99, 67.65 and 221.62 pg/ml. In this previous study, the limit of quantification (LOQ) for d5OT was 10 pg/ml. The LOQ of d5OT in the present study was 100 pg/ml and the method dete ..."}, "[3]": {"experiment": "Brain tissue concentration of administered d5OT by LC-MS/MS (terminal experiment)", "assay_type": "in vivo, rhesus macaques (Macaca mulatta)", "design": "key to BRAIN d5OT concentration: ND: not detected; +: detected but not quantifiable", "details": "for tissue level at time at 148 min: female", "method": "Monkeys were divided into three groups, each with two monkeys; each group received the following in a terminal study at the 5th week: Group 1 (Monkeys ID# 1 and ID# 5) received 40 IU of d5OT IN, Group 2 received 80 IU of d5OT IN (Monkeys ID# 2 and ID# 4) and Group 3 received 80 IU of d5OT IV (Monkeys ID# 3 and ID# 6). Animals were perfused on average, 140 ± 7 (mean ± SD) min after d5OT administration (range = 135–149 min) (Table 4). Plasma and CSF were drawn just before administration of d5OT, at the midpoint between d5OT administration and perfusion (~60 min post-d5OT administration), and just before perfusion.\nBrain tissue distribution of d5OT, as well as the endogenous concentrations of OT (d0OT), were measured in the following 12 brain regions: cerebellum, brainstem, striatum, amygdala, thalamus, visual cortex, insular cortex, hypothalamus, hippocampus, mPFC (Brodmann areas 32,25,24), dPFC (Brodmann areas 46,9,10), and OFC (Brodmann areas 14,13,12) (Tables 1, 2 and 3).\nBrain tissue sample preparation: Samples (~1.5 mg per sample) were individually weighed and placed into 12 mm × 75 mm glass tubes containing 1.5 ml ice-cold 1 M acetic acid and 30 µl of OT-d10 internal standard. Tissues were homogenized on ice and the resulting homogenates were poured into individual 15 ml polystyrene tubes. The original glass tube was rinsed with 1 ml acetonitrile, and this rinse was added to the appropriate 15 ml polystyrene tube containing the homogenate. After all homogenizations were complete, 3 ml acetonitrile was added to each tube and extraction proceeded, as described for the plasma and CSF samples.\nLC–MS/MS instrument parameters: Microtiter plates were prepared, as described above, and loaded onto a SIL-30ACMP autosampler set at 4 °C (Shimadzu). Forty microliters of each standard, QC or sample were injected onto an ACE Excel 2 C18-PFP 50 mm × 2.1 mm column (Advanced Chromatography Technologies, LTD, Aberdeen, Scotland) at 50 °C using reversed-phase chromatography. Mobile phase A was 0.1% formic acid in water and mobile phase B was 0.1% formic acid in ACN. The LC time gradient was created using two Nexera LC-30AD pumps (Shimadzu) running at 0.5 ml/min. Chromatography for serum and CSF samples began at 10% B and ended at 16% B at 3.6 min. One minute at 60% B was then required to wash the column, and the pumps re-equilibrated at 10% B for an additional 1.7 min (total run time ~6 min). Outside of the 1.55–3.55 min window during which OT eluted, a divert valve sent the LC effluent to waste.\nHeated electrospray […] in positive mode, with scheduled multiple reaction monitoring (MRM) on a Shimadzu LCMS-8050, was used for detection of OT. The interface temperature was 270 °C and heat block temperature was 170 °C. Gas was supplied by a Peak Genius 1051 nitrogen and air generator (Peak Scientific, Inchinnan, UK). Nitrogen gas was used for nebulizing (1 L/min) and drying (8.2 L/min), while air was used for heating (7.8 L/min). A capillary B needle was used in the interface. Needle protrusion was set to 1.25 mm and probe distance was set to 1.0 mm; both were determined empirically. Argon (Airgas, Radnor, PA) was used for the collision-induced dissociation at 330 kPa. The MS/MS conditions for OT were optimized using the automated MRM optimization procedure in LabSolutions software (Shimadzu). We collected two MRM transitions each, for d0OT (1007.40 > 723.40 and 1007.40 > 285.30), d5OT (1012.00 > 723.40 and 1012.00 > 290.35), and d10OT (1017.70 > 723.35 and 1017.70 > 295.40); the first transition listed in each case was used for quantitation, while the second was used as a reference ion. Retention times for d0OT, d5OT, and d10OT were 3.290, 3.270, and 3.253 min, respectively.\nThe sensitivities of each assay within the method were determined by the lowest and highest concentration calibrators in the calibration curve. The lower limit of quantitation (LLOQ) for d0OT was 10 pg/ml (4 pg/col); the LLOQ for d5OT was 100 pg/ml (40 pg/col). […]"}}, "data": [{"smiles": "CC[C@H](C)[C@@H]1NC(=O)[C@H](Cc2ccc(O)cc2)NC(=O)[C@@H](N)CSSC[C@@H](C(=O)N2CCC[C@H]2C(=O)N[C@@H](CC(C)C)C(=O)NCC(N)=O)NC(=O)[C@H](CC(N)=O)NC(=O)[C@H](CCC(N)=O)NC1=O", "note": "[OT, oxytocin]", "values": [{"measurement": "Concentration of CSF OT", "setting": "[1]; IN administration of unlabeled OT with a different IN device", "result": "no increased concentration"}, {"measurement": "CSF OT concentrations", "setting": "[1]; OT 48 IU, MAD spray and nebulizer", "result": "significant elevations"}, {"measurement": "CSF OT concentration", "setting": "[2]", "result": "approximately 30 pg/ml"}]}, {"smiles": "CC[C@H](C)[C@@H]1NC(=O)[C@H](Cc2ccc(O)cc2)NC(=O)[C@@H](N)CSSC[C@@H](C(=O)N2CCC[C@H]2C(=O)N[C@@H](CC(C)C)C(=O)NCC(N)=O)NC(=O)[C@H](CC(N)=O)NC(=O)[C@H](CCC(N)=O)NC1=O", "note": "[d5OT]", "values": [{"measurement": "Brain penetrance of d5OT in the striatum, % of the dose delivered IN", "setting": "[3]; 40 IU IN, assuming ~20% of delivered volume reaches upper nasal cavity", "result": "~0.03", "unit": "%"}, {"measurement": "BRAIN d5OT concentration", "setting": "[3]; Amygdala, 40 IU IN, monkey #5 (F), perfused 138 min post-dose, LC-MS/MS", "result": "+"}, {"measurement": "BRAIN d5OT concentration", "setting": "[3]; Brainstem, 40 IU IN, monkey #1 (F), perfused 148 min post-dose, LC-MS/MS", "result": "+"}, {"measurement": "BRAIN d5OT concentration", "setting": "[3]; Brainstem, 80 IU IN, monkey #2 (M), 136 min post-dose, molarity calculated for extracellular fluid volume (20% of brain volume)", "result": "< 1", "unit": "nM"}, {"measurement": "BRAIN d5OT concentration", "setting": "[3]; Brainstem, 80 IU IN, monkey #2 (M), perfused 136 min post-dose, LC-MS/MS", "result": 0.14, "unit": "pg/mg"}, {"measurement": "BRAIN d5OT concentration", "setting": "[3]; Brainstem, 80 IU IN, monkey #4 (M), 135 min post-dose, molarity calculated for extracellular fluid volume (20% of brain volume)", "result": 1, "unit": "nM"}, {"measurement": "BRAIN d5OT concentration", "setting": "[3]; Brainstem, 80 IU IV, monkey #6 (F), perfused 135 min post-dose, LC-MS/MS", "result": "+"}, {"measurement": "BRAIN d5OT concentration", "setting": "[3]; Cerebellum, 80 IU IN, monkey #4 (M), perfused 135 min post-dose, LC-MS/MS", "result": "+"}, {"measurement": "BRAIN d5OT concentration", "setting": "[3]; OFC, 80 IU IN, monkey #2 (M), 136 min post-dose, molarity calculated for extracellular fluid volume (20% of brain volume)", "result": 11, "unit": "nM"}, {"measurement": "BRAIN d5OT concentration", "setting": "[3]; Striatum, 40 IU IN, monkey #1 (F), 148 min post-dose, molarity calculated for extracellular fluid volume (20% of brain volume)", "result": 13, "unit": "nM"}, {"measurement": "BRAIN d5OT concentration", "setting": "[3]; Striatum, 40 IU IN, monkey #5 (F), perfused 138 min post-dose, LC-MS/MS", "result": "+"}, {"measurement": "BRAIN d5OT concentration", "setting": "[3]; Thalamus, 40 IU IN, monkey #1 (F), 148 min post-dose, molarity calculated for extracellular fluid volume (20% of brain volume)", "result": 1, "unit": "nM"}, {"measurement": "d5OT concentration in striatum (highest), comparable to that in the OFC", "setting": "[3]; after IN d5OT, Table 1", "result": "~ 10 nM"}, {"measurement": "BRAIN d5OT concentration", "setting": "[3]; dPFC, 40 IU IN, monkey #5 (F), perfused 138 min post-dose, LC-MS/MS", "result": "+"}, {"measurement": "BRAIN d5OT concentration", "setting": "[3]; dPFC, 80 IU IN, monkey #4 (M), perfused 135 min post-dose, LC-MS/MS", "result": "+"}, {"measurement": "BRAIN d5OT concentration", "setting": "[3]; dPFC, 80 IU IV, monkey #6 (F), perfused 135 min post-dose, LC-MS/MS", "result": "+"}, {"measurement": "tissue level at time at 148 min", "setting": "[3]; rhesus monkey, brain (striatum), Striatum, 40 IU IN, monkey #1 (F), perfused 148 min post-dose, LC-MS/MS", "result": 2.41, "unit": "ng/g"}, {"measurement": "tissue level at time at 148 min", "setting": "[3]; rhesus monkey, brain (thalamus), Thalamus, 40 IU IN, monkey #1 (F), perfused 148 min post-dose, LC-MS/MS", "result": 0.23, "unit": "ng/g"}, {"measurement": "BRAIN d5OT concentration", "setting": "[3]; mPFC, 80 IU IV, monkey #6 (F), perfused 135 min post-dose, LC-MS/MS", "result": "+"}, {"measurement": "tissue level at time at 136 min", "setting": "[3]; male, rhesus monkey, brain (OFC), OFC, 80 IU IN, monkey #2 (M), perfused 136 min post-dose, LC-MS/MS", "result": 2.04, "unit": "ng/g"}, {"measurement": "tissue level at time at 2.25 h", "setting": "[3]; male, rhesus monkey, brain (brainstem), Brainstem, 80 IU IN, monkey #4 (M), perfused 135 min post-dose, LC-MS/MS", "result": 0.24, "unit": "ng/g"}, {"measurement": "Brain concentrations of d5OT after IN delivery", "setting": "[3]; on the order of, Table 1", "result": "≥ 1", "unit": "nM"}]}]}
